Laboratory results taken from US20130065227A1, “METHODS OF INCREASING MACROPINOCYTOSIS IN CANCER CELLS” (priority 2010, published 2013).
{Fluor} = fluorophore: 5-carboxyfluorescein (FAM) or Alexa Fluor 488

Experiments:
[1] = system: DU145 cells; assay type: cell-based; conditions: 4 days, 10 μM AS1411
Procedure: DU145 cells were incubated for 4 days in the presence of 10 μM AS1411 with 3-MA at the concentration indicated, and cell number was assessed by MTT assay.
It also appears unlikely that AS1411-induced cell death is due to autophagy. […] Further evidence that supports the idea that AS1411 can induce methuosis comes from the similarity between the appearance of cells treated with AS1411 and published images of glioblastoma cells undergoing Ras-induced methuosis.

[2] = system: cancer cells (DU145, HeLa, MDA-MB-231) and non-malignant Hs27 skin fibroblasts; assay: Temperature-dependence of oligonucleotide uptake by flow cytometry; assay type: cell-based; conditions: 10 μM, 37° C. or 4° C. for 2 h, all cell types
Procedure: FIG. 1 are graphs showing that AS1411 cell internalization is an active process. Cells were plated 18 h before uptake analysis. After incubation as described, cells were washed with ice-cold PBS, incubated with 1 μg/ml 7-AAD, harvested and resuspended in 1% paraformaldehyde containing 2 μg/ml actinomycin D, then analyzed by flow cytometry. (Panel A) DU145 cells were incubated at 37° C. with fresh complete DMEM medium containing 10 μM FL-AS1411 (black line) or 10 μM FL-CRO (gray line) for the time indicated. (Panel B) DU145 cells were incubated for 2 h at 37° C. in complete or serum-free DMEM medium containing 10 μM FL-AS1411, or 10 μM FL-CRO, or no oligonucleotide. (Panel C) Various cell lines were incubated with 10 μM FL-AS1411 (black outline histogram), 10 μM FL-CRO (gray outline histogram) or without DNA (solid gray histogram) at 37° C. or 4° C. for 2 h. All experiments were repeated at least three times. Data are mean of three independent samples; bars, SE; *(p<0.05). […]
To determine whether AS1411 uptake occurs through an active uptake process, the temperature-dependence of AS1411 uptake in cancer cells (DU145, HeLa, MDA-MB-231) and non-malignant Hs27 skin fibroblasts was evaluated using flow cytometry. […]

Substance	effect in combination with 3-MA [1]	temperature dependence of uptake [2]
5′-d(GGTGGTGGTGGTTGTGGTGGTGGTGG) [AS1411]	additive	
5′-Fluor-d(TTTCCTCCTCCTCCTTCTCCTCCTCCTCC) (DNA TTTCCTCCTCCTCCTTCTCCTCCTCCTCC; DNA, 5' {Fluor}, backbone and methylation of C not given here) [FL-CRO, reference compound]		strong temperature dependence
